We go through two sequences from patent US10676514B2, “CDCA1-derived peptide and vaccine containing same” (ONCOTHERAPY SCIENCE, INC., priority 2014, dated 2020).

What all share (format): cell-based, human
Assay [1] has as its system peptide-pulsed C1R-A11 cells. Briefly: IFN-gamma ELISPOT assay of peptide-induced CTLs (HLA-A*1101). Conditions: CTLs induced from HLA-A*1101-positive donors, peptide-pulsed C1R-A11 vs control, listed as CDCA1-A11-9-343. From the text:
(§1) Monocyte-derived dendritic cells (DCs) were used as the antigen-presenting cell to induce a cytotoxic T lymphocyte (CTL) response against peptides presented on human leukocyte antigens (HLAs). As described in the other sections, DCs were generated in vitro (Nakahara S et al., Cancer Res 2003, 63(14): 4112-8). Specifically, peripheral-blood mononuclear cells isolated from healthy volunteers (HLA-A*1101-positive) with the Ficoll-Paque plus solution (Pharmacia) were separated by attaching to plastic tissue culture dishes (Becton Dickinson) and concentrated as a monocyte fraction. The monocyte-concentrated population was cultured in the presence of 1000 IU/ml granulocyte macrophage colony-stimulating factor (R&D System) and 1000 IU/ml interleukin(IL)-4 (R&D System) in an AIM-V medium (Invitrogen) containing 2% heat-inactivated autologous serum (AS). After seven days of culturing, the cytokine-induced DCs were pulsed with 20 micro-g/ml each of the synthesized peptides in an AIM-V medium at 37 degrees C. for three hours in the presence of 3 micro-g/ml beta 2-microglobulin. The generated cells appeared to express on their cell surface DC-associated molecules such as CD80, CD83, CD86 and HLA class II (data not shown). Next, these peptide-pulsed DCs were inactivated by X-ray irradiation (20 Gy), and mixed in a 1:20 ratio with autologous CD8^+ T cells obtained by positive selection using the CD8 Positive Isolation Kit (Dynal). These culture products were seeded in a 48-well plate (Corning). Each well was made to contain 1.5×10^4 peptide-pulsed DCs, 3×10^5 CD8^+ T cells and 10 ng/ml IL-7 (R&D System) in 0.5 ml of the AIM-V/2% AS medium. Three days later, these culture products were added with a final concentration of 20 IU/ml IL-2 (CHIRON). On day 7 and day 14, T cells were further stimulated with peptide-pulsed autologous DCs. The DCs were prepared every time by the same method as above. On day 21, after the third peptide stimulation, CTLs were examined against the peptide-pulsed C1R-A11 cells by a human interferon (IFN)-gamma enzyme-linked immunospot (ELISPOT) assay (Tanaka H et al., Br J Cancer 2001, 84(1): 94-9; Umano Y et al., Br J Cancer 2001, 84(8): 1052-7; Uchida N et al., Clin Cancer Res 2004, 10(24): 8577-86; Suda T et al., Cancer Sci 2006, 97(5): 411-9; Watanabe T et al., Cancer Sci 2005, 96(8): 498-506).
Specifically, peptide-pulsed C1R-A11 (1×10^4 cells/well) was prepared as the stimulator cell. The induced CTLs, i.e., CTL lines and CTL clones, were used as the responder cell. The IFN-gamma ELISPOT assay and IFN-gamma ELISA were performed according to the manufacturer's manual.

The test system of assay [2] is peptide-pulsed C1R-A03. Put plainly: IFN-gamma ELISPOT assay of peptide-induced CTLs (HLA-A*0301). Conditions: CTLs induced from HLA-A*0301-positive donors, peptide-pulsed C1R-A03 vs control.
Excerpt: as §1, with “(HLA-A*0301-positive)” for “(HLA-A*1101-positive)”, “C1R-A03” for “C1R-A11 cells”
(§2) Specifically, peptide-pulsed C1R-A03 (1×10^4 cells/well) was prepared as the stimulator cell. The induced CTLs, i.e., CTL lines and CTL clones, were used as the responder cell. The IFN-gamma ELISPOT assay and IFN-gamma ELISA were performed according to the manufacturer's manual.

The test system of assay [3] is peptide-pulsed C1R-A03. Briefly: IFN-gamma ELISA of CTL lines and CTL clones (HLA-A*0301). The protocol:
CTLs were propagated in culture using methods similar to those disclosed by Riddell et al. (Walter E A et al., N Engl J Med 1995, 333(16): 1038-44; Riddell S R et al., Nat Med 1996, 2(2): 216-23). The CTLs were co-cultured in a total of 25 ml AIM-V medium containing 5% AS (AIM-V/5% AS) and 40 ng/ml anti-CD3 antibody with two types of Mitomycin C-treated human B lymphoblastoid cell lines at 5×10^6 cells/flask. One day after beginning of the culturing, 120 IU/ml IL-2 was added to the culture. On days 5, 8 and 11, a fresh AIM-V/5% AS medium containing 30 IU/ml IL-2 was added to the culture (Tanaka H et al., Br J Cancer 2001, 84(1): 94-9; Umano Y et al., Br J Cancer 2001, 84(8): 1052-7; Uchida N et al., Clin Cancer Res 2004, 10(24): 8577-86; Suda T et al., Cancer Sci 2006, 97(5): 411-9; Watanabe T et al., Cancer Sci 2005, 96(8): 498-506).
Dilution of CTLs was carried out to make 0.3, 1 and 3 cells/well in 96 round-bottomed microtiter plates (Nalge Nunc International). The CTLs were co-cultured with two types of Mitomycin C-treated human B lymphoblastoid cell lines at 1×10^4 cells/well in a total of 150 micro-l/well AIM-V/5% AS medium with 30 ng/ml anti-CD3 antibody and 125 IU/ml IL-2. Ten days later, IL-2 was added to the medium at 50 micro-l/well to reach a final concentration of 125 IU/ml. On day 14, the CTL activity was tested, and the CTL clones were propagated using the same method as described above (Uchida N et al., Clin Cancer Res 2004, 10(24): 8577-86; Suda T et al., Cancer Sci 2006, 97(5): 411-9; Watanabe T et al., Cancer Sci 2005, 96(8): 498-506).
as §2
(In general: In an ELISA, binding on a coated surface is turned into a signal by an enzyme label.)

Entries after “also recorded” stand apart in the source; their conditions may differ.

On to “RLMIVKKEK (a peptide derived from CDCA1) [SEQ ID NO: 10]”, for which the “peptide-specific CTL activity (IFN-gamma production)” value is “potent IFN-gamma production; also recorded: significant specific CTL activity” in assay [1] and “no specific IFN-gamma production; also recorded: specific IFN-gamma production was not observed” in the assay on peptide-pulsed C1R-A03 [2] (listed as CDCA1-A03-9-343).

For “KMKDTVQKLK (a peptide derived from CDCA1) [SEQ ID NO: 47]”, the “IFN-gamma production of CTL clones” value in the assay with peptide-pulsed C1R-A03 [3] (CTL clones by limiting dilution, peptide-pulsed C1R-A03, listed as CDCA1-A03-10-257) is “Potent IFN-gamma production”. In the assay with peptide-pulsed C1R-A03 [3] (CTL lines, peptide-pulsed vs non-pulsed target cells, HLA-A*0301), the “IFN-gamma production of CTL lines” value was “potent IFN-gamma production”. The “peptide-specific CTL activity (IFN-gamma production)” value in the assay on peptide-pulsed C1R-A03 [2] (listed as CDCA1-A03-10-257) is “potent IFN-gamma production; also recorded: significant specific CTL activity”.
